The values below come from ChEMBL document CHEMBL4715921, “Novel Quinazolinyl Compounds as Endoribonuclease Inositol Requiring Enzyme 1 (IRE 1α) Inhibitors for Treating Cancer” (ACS Med Chem Lett, 2021).

Usually IC50 stands for the midpoint of a concentration-inhibition curve. The low end stands for greater potency in that assay, the high end for weaker potency in that assay.

This assay is described as follows: Inhibition of His-tagged IRE1alpha D688N mutant KR domain (G547 to L997 reidues) (unknown origin) expressed in Sf9 insect cells measured after 1 hr by TR-FRET assay. Also noted: species or system Homo sapiens. A general note: In TR-FRET formats the signal depends on donor and acceptor labels being close together.

In turn, `CCc1cc(-c2ccc(NS(=O)(=O)CCC(F)(F)F)c(F)c2)cc2cnc(N[C@H]3CC[C@H](N(C)C)CC3)nc12` showed an IC50 of 250 pM. This counts as sub-nanomolar.
In the case of `CCc1cc(-c2ccc(NS(=O)(=O)Cc3ccccc3)c(F)c2)cc2cnc(N[C@@H]3CNC[C@@H](F)C3)nc12`, inhibition was half-maximal at 180 pM (IC50). The IC50 values of the last two molecules are within 1.5-fold of each other.
`O=S(=O)(Cc1ccccc1)Nc1ccc(-c2ccc3nc(N[C@H]4CCCNC4)ncc3c2)c(F)c1F` had a half-maximal inhibitory concentration (IC50) of 570 pM. This IC50 is about 3.2-fold higher than that of the molecule before.
As to `O=S(=O)(Cc1ccccc1)Nc1c(F)cc(-c2ccc3nc(N[C@H]4CCCNC4)ncc3c2)cc1F`, the 50% inhibitory concentration (IC50) turned out to be 530 pM.
Take `O=S(=O)(Cc1ccccc1)Nc1c(F)cc(-c2ccc3nc(N[C@@H]4CNC[C@@H](F)C4)ncc3c2)cc1F`: the concentration for half-maximal inhibition (IC50) worked out at 510 pM.
For the molecule `CCc1cc(-c2ccc(NS(=O)(=O)Cc3ccccc3)cc2F)cc2cnc(N[C@@H]3CNC[C@@H](F)C3)nc12`, half-maximal inhibition (IC50) required 460 pM.
